# How the values were obtained:
# [1] = system: MCF-7 human breast adenocarcinoma xenografts; assay: MCF-7 xenograft study with untreated control (second study); type: in vivo, nude mice; details: for Tumour growth delay compared to controls: in words; for Max % weight loss / Median RTV2 / Growth delay: second study; for Max % weight loss: 100mg/kg/day i.p.; for Median RTV2: 100mg/kg/day i.p. days 0-17, n=8; for Growth delay: vs untreated control
# Method: The MCF-7 human breast adenocarcinoma model was selected for xenograft studies. […] An oestrogen pellet was implanted subcutaneously in the dorsal area 24 hours prior to 2-3mm^3 fragments of MCF-7 tumour taken from donor tumours transplanted subcutaneously in the abdominal flanks of the efficacy study mice. Once tumour volumes reached approximately 32 mm^3 (as measured by calipers, designated treatment Day 0) mice were randomised into one of three groups (n = 8) as follows: EPL001 or EPL030 at 100 mg/kg/day administered i.p. on […], plus a peptide-untreated (PBS only) control group. Tumour volume, using calipers, and animal body weight were recorded throughout the experiment and normalised to the respective tumour volume on the initial day of treatment (Day 0). Mann-Whitney U tests were conducted to determine the statistical significance of any differences in growth rate (based on tumour volume doubling time) between control and treated groups.
# The MCF-7 human breast adenocarcinoma model was selected for two xenograft studies. An oestrogen pellet was implanted subcutaneously in the dorsal area 24 hours prior to 2-3mm^3 fragments of MCF-7 tumour taken from donor tumours transplanted subcutaneously in the abdominal flanks of the efficacy study mice. Once tumour volumes reached approximately 32 mm^3 (as measured by calipers, designated treatment day 0) mice were randomised into treatment groups (n=8).
# In the second study three groups were used as follows: EPL001 or EPL030 at 100mg/kg/day administered i.p. on days 0-17, plus an untreated control group.
# Tumour volume, using calipers, and animal body weight were recorded throughout the experiment and normalised to the respective volume on the initial day of treatment (day 0). Mann-Whitney U tests were conducted to determine the statistical significance of any differences in growth rate (based on tumour volume doubling time) between control and treated groups.
# PC3 cells = assay: MTS colorimetric viable cell assay, PC3; type: cell-based, human; details: for OD below that of EPL001: PC3 time course study
# Procedure, shortened: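 Cells seeded at 8,000/well, given peptides (14mer to 6mer) at 30 μM final at the outset, triplicate, buffer controls; viable cells by MTS absorbance at 492 nm after 27 h growth. Data as OD mean ± SEM, two-tailed t-test; a 14mer time course on PC3 read at 24 and 48 h.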
# [2] = Toxicity study in immunodeficient nude mice; type: in vivo, female Balb/c immunodeficient nude mice; details: for Toxicity: in words; for Maximum weight loss compared to Day 0: groups of 2 mice
# Method: For toxicity studies female Balb/c immunodeficient nude mice were used (B & K Universal, Hull, UK), aged 6–8 weeks old. They were housed in cages in isolation cabinets in an air-conditioned room with regular alternating cycles of light and darkness and received Teklad 2018 (Envigo) diet and water ad libitum. EPL001 and EPL030 in PBS at pH7.4 were administered to groups of 2 mice intraperitoneally (i.p.) daily on Days 0–4 at 500 mg/kg/dose and then 1000 mg/kg/dose. Following treatment, body weight was measured on a regular basis, and behaviour and general appearance monitored visually to assess for deleterious effects (e.g. dehydration, impaired mobility, hunched posture, low body temperature, ulceration and significant body weight loss), with any effects during the study recorded. […] If no deleterious effects were seen after at least 16 days of study, then the animals were sacrificed, with the dose considered non-toxic.
# For toxicity studies female Balb/c immunodeficient nude mice were used (B & K Universal, Hull, UK), aged 6-8 weeks old. They were housed in cages in isolation cabinets in an air-conditioned room with regular alternating cycles of light and darkness and received Teklad 2018 (Envigo) diet and water ad libitum. EPL001 and EPL030 in PBS at pH7.4 were administered to groups of 2 mice intraperitoneally (i.p.) daily on days 0-4 at 500mg/kg/dose and then 1000mg/kg/dose. Following treatment, body weight was measured on a regular basis, and behaviour and general appearance monitored visually to assess for deleterious effects (e.g. dehydration, impaired mobility, hunched posture, low body temperature, ulceration and significant body weight loss), with any effects during the study recorded.
# [3] = system: circulating levels of the anterior pituitary hormones LH, GH and PRL; assay: Intracerebroventricular infusion in sheep, RIA of circulating pituitary hormones; type: in vivo, Ovis aries; details: for GH, percentage difference between After and Before / LH, percentage difference between After and Before / PRL, percentage difference between After and Before: ICV 100 μg/h for 24h; for GH, After / LH, After / PRL, After: last 6h of ICV infusion, 100 μg/h for 24h, one sheep, RIA, mean +/− SEM
# Method: A sheep study involved randomly selected Corriedale ewes (Ovis aries) of typically 5–6 years of age maintained under natural conditions at the Monash University Sheep Facility, Werribee, Victoria, Australia. EPL001 and EPL030 were subject to intracerebroventricular (ICV) infusion separately in vivo via a permanent cannula into the third ventricle of the brains of one sheep each at 100 μg/h for 24h. The zone that forms the floor of the third ventricle is that part of the hypothalamus called the median eminence. This is the anatomical interface between the brain and the anterior pituitary. Immunostaining in the ovine median eminence, in the form of axonal beading, has been reported with an anti-EPL001 antibody. The aim here was to evaluate the impact on the ovine hypothalamic-pituitary axis of infusion from above the hypothalamus. Circulating levels of the anterior pituitary hormones LH (luteinising hormone), GH (growth hormone) and PRL (prolactin) were measured by radioimmunoassay (RIA) prior to and in the closing stages of infusion. Systemic blood samples from an indwelling jugular venous cannula were taken at 10 min intervals for 6h prior to infusion (‘Before’) and over the last 6h of infusion (‘After’).
# [4] = 500mg/kg/day ip Days 0 to 4, on Day 2
# [5] = 1000mg/kg/day ip Days 0 to 4, EPL030 on Day 3, EPL001 on Day 1
Sequence,"Tumour growth delay compared to controls ([1]; 100 mg/kg/day i.p., n = 8)","Tumour growth at termination compared with PBS-only controls ([1]; 100 mg/kg/day i.p., n = 8, ns) [%]",Max % weight loss [1] [%],Median RTV2 [1] [days],Growth delay [1] [days],OD below that of EPL001 (PC3 cells; 24h) [%],OD below that of EPL001 (PC3 cells; 48h) [%],Toxicity ([2]; 500mg/kg/day ip Days 0 to 4),"Maximum weight loss compared to Day 0 [2, 4] [%]","Maximum weight loss compared to Day 0 [2, 5] [%]",Toxicity ([2]; 1000mg/kg/day ip Days 0 to 4),"GH, percentage difference between After and Before [3]","LH, percentage difference between After and Before [3]","PRL, percentage difference between After and Before [3] [%]","GH, After [3] [ng/mL]","LH, After [3] [ng/mL]","PRL, After [3] [ng/mL]","Difference in percentage terms between control and test OD means (PC3 cells; PC3, 30 μM, 27h, MTS, 492 nm, triplicate) [%]"
"KLKMNGKNIEPVFT [EPL030, …, scrambled EPL001 control]",no statistically significant tumour growth delay,−20.2,2.4,3.6,0.1,18.9,51.3,No discernible toxicity,4.0,7.0,no discernible signs of toxicity,+43.8%,+7.4%,−23.8,7.82 ± 0.80,12.89 ± 3.78,107.03 ± 18.92,
"MKPLTGKVKEFNNI [EPL001, 14mer master test peptide …; ovine provenance]",no statistically significant tumour growth delay,,0,4.6,1.1,,,No discernible toxicity,5.0,3.5,no discernible signs of toxicity,+25.4%,+13.4%,−28.5,3.41 ± 0.63,6.48 ± 0.90,95.14 ± 21.62,−0.7

# — paper PMC9714824, “Hexapeptides from mammalian inhibitory hormone hunt activate and inactivate nematode reproduction” (PLOS ONE, 2022)
